From ChEMBL document CHEMBL5724914, “Linking interpersonal differences in gut microbiota composition and drug biotransformation activity” (2024)

How the values were obtained:
[1] = (§1) The drug is tested on Z-026 corresponding to metagenome with ENA study accession number: PRJEB37062 and ENA sample accession number: ERS12561825 for biotransformation under anaerobic condition. The drug concentrations were measured over 9 timepoints collected between 0 and 24 hours of incubation by liquid-chromatography-coupled mass spectrometry (LC–MS); details: 2 µM
[2] = (§2) The drug is tested on Z-024 corresponding to pig gut metagenome with ENA study accession number: PRJEB37062 and ENA sample accession number: ERS12561823 for biotransformation under anaerobic condition. The drug concentrations were measured over 9 timepoints collected between 0 and 24 hours of incubation by liquid-chromatography-coupled mass spectrometry (LC–MS); details: 2 µM
[3] = as §2, with “Z-020” for “Z-024”, “rabbit” for “pig”, “ERS12561819” for “ERS12561823”; details: 2 µM
[4] = as §1, with “Z-005” for “Z-026”, “ERS12561805” for “ERS12561825”; details: 2 µM
[5] = as §2, with “Z-002” for “Z-024”, “rabbit” for “pig”, “ERS12561802” for “ERS12561823”; details: 2 µM
[6] = as §2, with “WLS-350” for “Z-024”, “human” for “pig”, “ERS12561789” for “ERS12561823”; details: 2 µM
[7] = as §2, with “WLS-090” for “Z-024”, “human” for “pig”, “ERS12561753” for “ERS12561823”; details: 2 µM
[8] = as §2, with “WLS-052” for “Z-024”, “human” for “pig”, “ERS12561747” for “ERS12561823”; details: 2 µM
[9] = as §2, with “WLS-039” for “Z-024”, “human” for “pig”, “ERS12561746” for “ERS12561823”; details: 2 µM
[10] = human gut metagenome, 24 h, 2 µM
[11] = human gut metagenome, 24 h, 2 µM; remark: listed apart in the source
[12] = human gut metagenome, 24 h, 2 µM; remark: listed apart in the source
[13] = human gut metagenome, 24 h, 2 µM; remark: listed apart in the source
[14] = human gut metagenome, 24 h, 2 µM; remark: listed apart in the source
[15] = human gut metagenome, 24 h, 2 µM; remark: listed apart in the source
[16] = human gut metagenome, 24 h, 2 µM; remark: listed apart in the source
[17] = human gut metagenome, 24 h, 2 µM; remark: listed apart in the source
[18] = human gut metagenome, 24 h, 2 µM; remark: listed apart in the source
[19] = human gut metagenome, 24 h, 2 µM; remark: listed apart in the source
[20] = human gut metagenome, 24 h, 2 µM; remark: listed apart in the source
Further: call rule not given here.

Compound	Bacterial Biotransformation [1]	Bacterial Biotransformation [2]	Bacterial Biotransformation [3]	Bacterial Biotransformation [4]	Bacterial Biotransformation [5]	Bacterial Biotransformation [6]	Bacterial Biotransformation [7]	Bacterial Biotransformation [8]	Bacterial Biotransformation [9]	Bacterial Biotransformation [10]	Bacterial Biotransformation [11]	Bacterial Biotransformation [12]	Bacterial Biotransformation [13]	Bacterial Biotransformation [14]	Bacterial Biotransformation [15]	Bacterial Biotransformation [16]	Bacterial Biotransformation [17]	Bacterial Biotransformation [18]	Bacterial Biotransformation [19]	Bacterial Biotransformation [20]
COc1cc2nc(N3CCN(C(=O)C4COc5ccccc5O4)CC3)nc(N)c2cc1OC.CS(=O)(=O)O (stereo not given) [DOXAZOSIN MESYLATE]	Compound metabolized	Compound NOT metabolized	Compound NOT metabolized	Compound metabolized	Compound NOT metabolized	Compound metabolized	Compound metabolized	Compound NOT metabolized	Compound NOT metabolized	Compound NOT metabolized	Compound metabolized	Compound metabolized	Compound metabolized	Compound NOT metabolized	Compound metabolized	Compound metabolized	Compound NOT metabolized	Compound NOT metabolized	Compound NOT metabolized	Compound NOT metabolized
CC(=O)O[C@H]1C(=O)[C@@]2(C)[C@H]([C@H](OC(=O)c3ccccc3)[C@]3(O)C[C@H](OC(=O)[C@H](O)[C@@H](NC(=O)c4ccccc4)c4ccccc4)C(C)=C1C3(C)C)[C@]1(OC(C)=O)CO[C@@H]1C[C@@H]2O [PACLITAXEL]	Compound metabolized	Compound metabolized	Compound metabolized	Compound metabolized	Compound metabolized	Compound NOT metabolized	Compound NOT metabolized	Compound metabolized	Compound metabolized	Compound NOT metabolized	Compound NOT metabolized	Compound NOT metabolized	Compound NOT metabolized	Compound NOT metabolized	Compound NOT metabolized	Compound NOT metabolized	Compound NOT metabolized	Compound NOT metabolized	Compound NOT metabolized	Compound NOT metabolized
COc1ccccc1OCCNCC(O)COc1cccc2[nH]c3ccccc3c12 (stereo not given) [CARVEDILOL]	Compound NOT metabolized	Compound metabolized	Compound NOT metabolized	Compound NOT metabolized	Compound NOT metabolized	Compound metabolized	Compound metabolized	Compound metabolized	Compound metabolized	Compound NOT metabolized	Compound metabolized	Compound NOT metabolized	Compound NOT metabolized	Compound metabolized	Compound NOT metabolized	Compound metabolized	Compound NOT metabolized	Compound NOT metabolized	Compound NOT metabolized	Compound NOT metabolized
c1ccc2[nH]c(-c3cscn3)nc2c1 [THIABENDAZOLE]	Compound NOT metabolized	Compound NOT metabolized	Compound NOT metabolized	Compound NOT metabolized	Compound NOT metabolized	Compound NOT metabolized	Compound metabolized	Compound NOT metabolized	Compound NOT metabolized	Compound NOT metabolized	Compound NOT metabolized	Compound NOT metabolized	Compound NOT metabolized	Compound metabolized	Compound NOT metabolized	Compound metabolized	Compound NOT metabolized	Compound NOT metabolized	Compound NOT metabolized	Compound NOT metabolized
C[N+]12CCC(CC1)C(OC(=O)C(O)(c1ccccc1)c1ccccc1)C2.[Br-] (stereo not given) [CLIDINIUM BROMIDE]	Compound NOT metabolized	Compound metabolized	Compound NOT metabolized	Compound NOT metabolized	Compound NOT metabolized	Compound metabolized	Compound metabolized	Compound metabolized	Compound metabolized	Compound NOT metabolized	Compound NOT metabolized	Compound metabolized	Compound metabolized	Compound metabolized	Compound NOT metabolized	Compound metabolized	Compound NOT metabolized	Compound NOT metabolized	Compound NOT metabolized	Compound NOT metabolized
O=C1CC2(CCCC2)CC(=O)N1CCCCN1CCN(c2ncccn2)CC1 [BUSPIRONE]	Compound NOT metabolized	Compound NOT metabolized	Compound NOT metabolized	Compound NOT metabolized	Compound metabolized	Compound metabolized	Compound metabolized	Compound NOT metabolized	Compound NOT metabolized	Compound NOT metabolized	Compound NOT metabolized	Compound NOT metabolized	Compound metabolized	Compound metabolized	Compound NOT metabolized	Compound metabolized	Compound NOT metabolized	Compound NOT metabolized	Compound NOT metabolized	Compound NOT metabolized
COC(=O)C(c1ccccc1)C1CCCCN1 (stereo not given) [METHYLPHENIDATE]	Compound NOT metabolized	Compound metabolized	Compound NOT metabolized	Compound NOT metabolized	Compound metabolized	Compound NOT metabolized	Compound metabolized	Compound NOT metabolized	Compound NOT metabolized	Compound NOT metabolized	Compound NOT metabolized	Compound NOT metabolized	Compound metabolized	Compound NOT metabolized	Compound NOT metabolized	Compound metabolized	Compound NOT metabolized	Compound NOT metabolized	Compound NOT metabolized	Compound NOT metabolized
OCCN(CCO)c1nc(N2CCCCC2)c2nc(N(CCO)CCO)nc(N3CCCCC3)c2n1 [DIPYRIDAMOLE]	Compound metabolized	Compound metabolized	Compound NOT metabolized	Compound metabolized	Compound metabolized	Compound metabolized	Compound metabolized	Compound metabolized	Compound metabolized	Compound NOT metabolized	Compound metabolized	Compound metabolized	Compound metabolized	Compound metabolized	Compound NOT metabolized	Compound metabolized	Compound NOT metabolized	Compound NOT metabolized	Compound NOT metabolized	Compound NOT metabolized
